Literature values in patent US20030211177A1, “Method and composition for treatment and prevention of alopecia” (priority 2003, published 2003).

System: patients' hair (alopecia)
Settings: Propecia literature

CC(C)(C)NC(=O)[C@H]1CC[C@H]2[C@@H]3CC[C@H]4NC(=O)C=C[C@]4(C)[C@H]3CC[C@]12C [Propecia ®, finasteride]
Excellent Improvement (percent of subjects): 0%
Moderate Improvement (percent of subjects): 4%
No Improvement (percent of subjects): 62%
Slight Improvement (percent of subjects): 34%
